Measured values: paper PMC8824275, “Gastrointestinal Stability and Cytotoxicity of Bacteriocins From Gram-Positive and Gram-Negative Bacteria: A Comparative in vitro Study” (Frontiers in Microbiology, 2022)
Converted amounts (≈) assume the structure as drawn. Where two headings read alike, the source gives them in different places. Bridge positions count the residues as written; N and C are the ends. Square brackets hold non-standard residues; d marks the D form. Ends that are not written are not given here. Peptide text beside a SMILES is read from it. Abu = CC[C@H](N)C(=O)O; Dhb = C/C=C(\N)C(=O)O; Dha = C=C(N)C(=O)O

How the values were obtained:
human red blood cells = settings: 750 μM (2.5 mg/mL), ref Begde et al., 2011; cited from earlier work
Experimental: (§1) Hemolytic activity is used for initial toxicity assessment and estimation of therapeutic index. Nisin remains to be the most studied bacteriocin, while there are very few data available for the other bacteriocins. […] Hemolytic activity of nisin A (Nisaplin®) at 3.35 μg/mL concentration was reported to be 6% in human red blood cells. In another study by [Maher and McClean (2006)], hemolytic activity exerted by 230 μM (771 μg/mL) nisin A (Nutrition 21) was shown ...

S. Newport ATCC 6962 = type: cell-based, Salmonella enterica subsp. enterica serovar Newport; settings: for Total activity: broth microdilution
Description: (§2) Microcin J25 was produced by Escherichia coli MC4100 carrying the plasmid PTUC 202 ([Solbiati et al., 1999]). For the antibacterial activity of pure compounds and digestion mixture, Listeria ivanovii HPB28 (Canada Health Protection Branch) was used as indicator strain for nisin and pediocin PA-1, while Staphylococcus aureus ATCC 6538 (ATCC) and Salmonella enterica subsp. enterica serovar Newport ATCC 6962 (later referred to as S. Newport, ATCC) were used as indicator strains for bactofencin A (M14L, M18L) and microcin J25, respectively. L. ivanovii HPB28 and S. aureus were cultured in Tryptic Soy (Difco Laboratories, Spark, MD, United States) supplemented with 0.6% yeast extract (TSBYE), at 30 and 37°C, respectively. S. Newport was cultured at 37°C overnight in Luria-Bertani (LB) (Difco Laboratories, Spark, MD, United States). All strains were maintained at –80°C as stock cultures in their corresponding culture media supplemented with 20% glycerol, and propagated twice at 24 h intervals before use.
(§3) Quantitative determination of inhibitory activity of bacteriocins was carried out using the broth microdilution method as described by [Ben Said et al. (2020)]. Two-fold serial dilutions of bacteriocins (125 μL) were prepared in an appropriate medium in a clear 96-well flat-bottom microtiter plate. Indicator strains were diluted to 10^5 CFU/mL, from which 50 μL were added to each well. The microtiter plates were incubated for 24 h under appropriate conditions, and optical densities were recorded at 595 nm (Infinite M200, Tecan, Switzerland). Control wells contained untreated culture and appropriate medium (blanks). The number of inhibition wells was noted and inhibition activities were calculated in μg/mL.

[1] = cited from earlier work
Description: There are limited number of studies regarding the stability of bacteriocins in the GI tract. It has been shown that bacteriocins can be degraded by proteolytic enzymes such as pepsin, trypsin and chymotrypsin in the stomach or intestine ([Fernandez et al., 2013]). […] However, in the current study, pediocin PA-1(M31L) and bactof ...

rat erythrocytes = test: Hemolytic activity; type: cell-based; settings: 0.4 to 400 μg/mL, 45 min, 37°C
Experimental: The experiment was performed after prior approval from the local ethics committee by TransBIOTech laboratory. Hemolytic potential of bacteriocins was evaluated according to [FDA (2005)]. Rat blood was collected into a heparinized tube and added in a 1:1 volume (100 μL) to serially diluted compounds (in 100 μL PBS), in a conical 96-well plate. 10% Triton X-100 and PBS were used as a positive and negative controls, respectively. The plates were sealed and incubated for 45 min at 37°C prior to centrifugation at 2,000 g for 10 min to pellet red blood cells. The supernatant was then transferred into clear 96-well plates and the absorbance was read at 540 nm (hemoglobin). The percentage of hemolysis was calculated as follow, with RBC standing for red blood cells:
%Hemolysis=AbsorbanceofRBCtreatedwithbacteriocins-AbsorbanceofRBCtreatedwithPBS/AbsorbanceofRBCtreatedwithTritonX100-AbsorbanceofRBCtreatedwithPBS

Caco-2 = settings: MTT assay, ref Maher and McClean, 2006; cited from earlier work
Description: (§4) To the best of our knowledge, this is the first study that evaluates the cytotoxicity of several bacteriocins with different structures, mechanisms of actions and spectra of inhibitory activity.

HT29 (epithelial cells) = settings: MTT assay, ref Maher and McClean, 2006; cited from earlier work
Description: as §4

SV40 cells = settings: 700 AU/mL (approximately 10–20 mg/mL), trypan blue, ref Murinda et al., 2003; cited from earlier work
Description: as §4

L. ivanovii HPB 28 = type: cell-based, Listeria ivanovii; settings: broth microdilution
Description: as §2, §3

[2] = test system: human cells relevant to oral cavity; settings: concentration up to 200 μg/mL; ref Shin et al. (2015); cited from earlier work
sheep erythrocytes = settings: sheep blood cells, 33.75 μM (113 μg/mL); ref Paiva et al., 2012; cited from earlier work
Experimental: as §1

Vero cells = settings: cited from earlier work
Description: as §4

HepG2 cells = settings: ref Paiva et al., 2012; cited from earlier work
Description: as §4

MCF-7 cells = settings: ref Paiva et al., 2012; cited from earlier work
Description: as §4

S. aureus ATCC 6538 = type: cell-based, Staphylococcus aureus; settings: for Total activity: broth microdilution
Description: as §2, §3

[3] = after oral conditions (SSF, 2 min, 37°C)
[4] = pure compound without GI digestion, 24 h, OD 595 nm
[5] = TIM-1 dynamic model, ref Kheadr et al., 2010

Compound: nisin
- Relative hemolysis (human red blood cells): 10%

Compound: CC[C@H](C)[C@H](NC(=O)CNC(=O)[C@@H](NC(=O)[C@H](Cc1ccccc1)NC(=O)[C@H](Cc1ccc(O)cc1)NC(=O)[C@@H]1CCC(=O)NCC(=O)NCC(=O)N[C@@H](C)C(=O)NCC(=O)N[C@@H](Cc2c[nH]cn2)C(=O)N[C@@H](C(C)C)C(=O)N2CCC[C@H]2C(=O)N1)C(C)C)C(=O)NCC(=O)N[C@H](C(=O)N1CCC[C@H]1C(=O)N[C@H](C(=O)N[C@@H](CO)C(=O)N[C@@H](Cc1ccccc1)C(=O)N[C@@H](Cc1ccc(O)cc1)C(=O)NCC(=O)O)[C@@H](C)CC)[C@@H](C)O [microcin J25] (GGAGHVPEYFVGIGTPISFYG-OH; lactam N-8 (inferred); C-terminus assumed)
- MIC (S. Newport ATCC 6962; ATCC 6962, 24 h): 0.0356 µg/mL (≈ 0.0169 µM)
- Total activity (S. Newport ATCC 6962; after gastric conditions (SGF, pepsin 2000 U/mL, lipase 60 U/mL, pH 3, 90 min, 37°C)): 0.0712 AU/mL
- Total activity (S. Newport ATCC 6962; [3]): 0.0712 AU/mL
- Total activity (S. Newport ATCC 6962; after small intestinal conditions (SIF, bile salt 10 mmol/L, pancreatin 100 U/mL, pH 7, 2 h, 37°C)): 0.356 AU/mL
- Total activity (S. Newport ATCC 6962; [4]): 0.0712 AU/mL

Compound: CC[C@H](C)[C@H](NC(=O)CNC(=O)[C@@H](NC(=O)[C@H](Cc1ccccc1)NC(=O)[C@H](Cc1ccc(O)cc1)NC(=O)[C@@H]1CCC(=O)NCC(=O)NCC(=O)N[C@@H](C)C(=O)NCC(=O)N[C@@H](Cc2cnc[nH]2)C(=O)N[C@@H](C(C)C)C(=O)N2CCC[C@H]2C(=O)N1)C(C)C)C(=O)NCC(=O)N[C@H](C(=O)N1CCC[C@H]1C(=O)N[C@H](C(=O)N[C@@H](CO)C(=O)N[C@@H](Cc1ccccc1)C(=O)N[C@@H](Cc1ccc(O)cc1)C(=O)NCC(=O)O)[C@@H](C)CC)[C@@H](C)O [microcin J25] (GGAGHVPEYFVGIGTPISFYG-OH; lactam N-8)
- Degradation upon exposure to pancreatin (small intestine) [1]: only partially degraded
- Resistance to the proteolytic enzymes in the stomach [1]: highly resistant

Compound: KYYGNGVTCGKHSCSVDWGKATTCIINNGALAWATGGHQGNHKC-OH (disulfide 9-14, 24-44) [pediocin PA-1(M31L)]
- Concentration above which dose-dependent increase in percentage of hemolysis was shown (rat erythrocytes): higher than 50 μg/mL

Compound: nisin A (I[Dhb]AI[Dha]LC[Abu]PGCK[Abu]GALMGCNMK[Abu]A[Abu]CHCSIHV[Dha]K; thioether (positions not given here); not fully specified (residues 7, 11, 19, 26, 28, bridges); UniProt P13068 24-57, looked up) [nisin A (Nutrition 21), commercial nisin A (Nutrition 21)]
- IC50 (Caco-2): 385.7 µg/mL
- IC50 (HT29 (epithelial cells)): 301.5 µg/mL

Compound: pediocin PA-1 (KYYGNGVTCGKHSCSVDWGKATTCIINNGAMAWATGGHQGNHKC; disulfide 9-14, 24-44; UniProt P29430 19-62, looked up) [wild-type bacteriocin naturally produced by Pediococcus acidilactici, literature data]
- Cell viability reduced to (SV40 cells): 36%
- Total activity (L. ivanovii HPB 28; [3]): 0.18 AU/mL
- Total activity (L. ivanovii HPB 28; [4]): 0.18 AU/mL
- Stability in the small intestine [1, 5]: completely degraded
- Stability in the stomach [1, 5]: stable

Compound: nisin Z (I[Dhb]AI[Dha]LC[Abu]PGCK[Abu]GALMGCNMK[Abu]A[Abu]CNCSIHV[Dha]K; thioether (positions not given here); not fully specified (residues 7, 11, 19, 26, 28, bridges); UniProt P29559 24-57, looked up) [nisin Z (Handary, Brussels, Belgium), commercial nisin Z from Handary]
- Toxic effect [2]: did not exert any toxic effect

Compound: nisin C [nisin C (Chrisin®)]
- Hemolysis (sheep erythrocytes): 6.6%
- Concentration reducing viability to 50% (Vero cells; ref Paiva et al., 2012): 45.21 µg/mL
- Concentration reducing viability to 50% (HepG2 cells): 352 µg/mL
- Concentration reducing viability to 50% (MCF-7 cells): 352 µg/mL

Compound: CC(C)C[C@@H]1NC(=O)CNC(=O)[C@H]([C@@H](C)O)NC(=O)[C@@H]2CCCN2C(=O)[C@H](CC(C)C)NC(=O)CNC(=O)[C@H](CC(N)=O)NC(=O)[C@H](CC(N)=O)NC(=O)[C@H](Cc2ccc(O)cc2)NC(=O)[C@H](C(C)C)NC(=O)[C@H](CCCNC(=N)N)NC(=O)[C@@H](NC(=O)[C@H](CCCNC(=N)N)NC(=O)[C@H](Cc2c[nH]cn2)NC(=O)[C@H](CCCCN)NC(=O)[C@H](CCCCN)NC(=O)[C@H](CCCNC(=N)N)NC(=O)[C@@H](N)CCCCN)CSSC[C@@H](C(N)=O)NC(=O)[C@H](Cc2c[nH]c3ccccc23)NC(=O)[C@H](CCCNC(=N)N)NC(=O)[C@H](Cc2ccc(O)cc2)NC1=O [bactofencin A(M14L, M18L)] (H-KRKKHRCRVYNNGLPTGLYRWC-NH2; disulfide 7-22 (inferred); N-terminus and C-terminus assumed)
- MIC (S. aureus ATCC 6538; ATCC 6538, 24 h): 5 µg/mL (≈ 1.82 µM)
- Total activity (S. aureus ATCC 6538; [3]): 10.4 AU/mL
- Total activity (S. aureus ATCC 6538; [4]): 10.4 AU/mL

Compound: nisin A (I[Dhb]AI[Dha]LC[Abu]PGCK[Abu]GALMGCNMK[Abu]A[Abu]CHCSIHV[Dha]K; thioether (positions not given here); not fully specified (residues 7, 11, 19, 26, 28, bridges); UniProt P13068 24-57, looked up) [nisin A (Nisaplin®), commercial nisin A product Nisaplin (Danisco)]
- EC50 (Vero cells; LDH cytotoxicity assay, ref Vaucher et al. (2010)): 0.62 µg/mL
